# Structures can show the parent of a compound that is named as a salt.
# Molecular target: T1, IRAK4 (Homo sapiens, UniProt Q9NWZ3)
# T1 construct: endogenous in cells; host or cells: THP-1 cells
# T1 sequence (Q9NWZ3 1-460): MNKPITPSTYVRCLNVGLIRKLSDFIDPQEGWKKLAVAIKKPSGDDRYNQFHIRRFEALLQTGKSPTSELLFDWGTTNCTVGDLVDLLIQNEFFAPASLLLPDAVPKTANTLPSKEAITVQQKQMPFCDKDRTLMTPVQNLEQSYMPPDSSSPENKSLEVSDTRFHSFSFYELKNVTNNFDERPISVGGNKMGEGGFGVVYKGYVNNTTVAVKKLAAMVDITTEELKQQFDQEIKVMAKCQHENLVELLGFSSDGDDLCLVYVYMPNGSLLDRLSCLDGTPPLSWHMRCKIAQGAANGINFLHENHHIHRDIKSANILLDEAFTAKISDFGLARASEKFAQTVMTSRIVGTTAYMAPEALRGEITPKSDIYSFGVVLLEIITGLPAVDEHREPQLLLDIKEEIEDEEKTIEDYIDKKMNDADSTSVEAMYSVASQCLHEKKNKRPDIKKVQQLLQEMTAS
# Assay: LVL THP1 HTRF (THP1 Homogeneous Time Resolved Fluorescence)
# Assay type: cell-based
# Conditions: THP1 cells, 18 h incubation with compound; for DC50: read-out: LVL THP1 HTRF EC50
# Procedure, shortened: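 IRAK4 HTRF read-out (665/615 nm ratio, anti-IRAK4 d2 acceptor and K donor, 18 h dark incubation at room temperature) on lysates of THP-1 cells. Cells were treated 18 h at 37° C. with 20 nL compound in DMSO, in colorless RPMI with 10% FBS, with a duplicate CTG plate.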
Compound,LVL THP1 HTRF YMIN [%],DC50 [nM]
C[C@H](C#N)Nc1cc(-n2ncc3cc(C#N)cnc32)ncc1C(=O)N[C@H]1CC[C@H](CCN2C3COCC2CN(c2ccc(C4CCC(=O)NC4=O)cc2)C3)CC1 (stereo partly shown) [P-189],25.3,54
C[C@H](C#N)Nc1cc(-n2ncc3cc(C#N)cnc32)ncc1C(=O)N[C@H]1CC[C@H](CCN2CCN(c3ccc(C4CCC(=O)NC4=O)cc3)C3(COC3)C2)CC1 (stereo partly shown) [P-190],24.9,158
C[C@H](C#N)Nc1cc(-n2ncc3cc(C#N)cnc32)ncc1C(=O)N[C@H]1CC[C@H](CCN2CCN(c3ccc(C4CCC(=O)NC4=O)cc3)C3(CC3)C2)CC1 (stereo partly shown) [P-191],20.4,1790
CCc1nc2c(cnn2-c2cc(N[C@H](C)C#N)c(C(=O)N[C@H]3CC[C@H](CCN4CCN(c5ccc(C6CCC(=O)NC6=O)cc5)CC4)CC3)cn2)cc1C#N (stereo partly shown) [P-192],1.0,58
C[C@H](C#N)Nc1cc(-n2ncc3cc(C#N)cnc32)ncc1C(=O)N[C@H]1CC[C@H](CCN2CC3COCC(C2)N3c2ccc(C3CCC(=O)NC3=O)cc2)CC1 (stereo partly shown) [P-194],39.8,4040
C[C@H](C#N)Nc1cc(-n2ncc3cc(C#N)cnc32)ncc1-c1cc([C@H]2CC[C@H](CCN3CCN(c4ccc(C5CCC(=O)NC5=O)cc4)CC3)CC2)on1 (stereo partly shown) [P-196],–,167
"C[C@H](C#N)Nc1cc(-n2ncc3cc(C#N)cnc32)ncc1-n1cc([C@H]2CC[C@H](C(Cl)CN3CCN(c4ccc(C5CCC(=O)NC5=O)cc4)CC3)CC2)nn1 (stereo partly drawn) [P-199, 1-(5-(4-((1R,4R)-4-((1R)-1-chloro-2-(4-(4-(2,6-dioxopiperidin-3-yl)phenyl)piperazin-1-yl)ethyl)cyclohexyl)-1H-1,2,3-triazol-1-yl)-4-(((R)-1-cyanoethyl)amino)pyridin-2-yl)-1H-pyrazolo[3,4-b]pyridine-5-carbonitrile.TFA]",2.7,2
C[C@H](C#N)Nc1cc(-n2ccc3cc(C#N)c(N)nc32)ncc1C(=O)N[C@H]1CC[C@H](CCN2CCN(c3ccc(C4CCC(=O)NC4=O)cc3)CC2)CC1 (stereo partly shown) [P-200],1.5,13
C[C@H](C#N)Nc1cc(-n2ncc3cc(C#N)cnc32)ncc1-n1cc(C2CCC(CCN3[C@@H](C)CN(c4ccc(C5CCC(=O)NC5=O)cc4)C[C@@H]3C)CC2)nn1 (stereo partly shown) [P-201],0.6,2
"C[C@H](C#N)Nc1cc(-n2ncc3cc(C#N)cnc32)ncc1-n1cc(C23CCC(CCN4CCN(c5ccc(C6CCC(=O)NC6=O)cc5)CC4)(CC2)C3)nn1 (stereo partly drawn) [P-202, 1-(4-(((R)-1-cyanoethyl)amino)-5-(4-(4-(2-(4-(4-(2,6-dioxopiperidin-3-yl)phenyl)piperazin-1-yl)ethyl)bicyclo[2.2.1]heptan-1-yl)-1H-1,2,3-triazol-1-yl)pyridin-2-yl)-1H-pyrazolo[3,4-b]pyridine-5-carbonitrile, TFA]",1.4,10
C[C@H](C#N)Nc1cc(-n2ncc3cc(C#N)c(N)nc32)ncc1-n1cc(C2CCC(CCN3C[C@@H](C)N(c4ccc(C5CCC(=O)NC5=O)cc4)C[C@@H]3C)CC2)nn1 (stereo partly shown) [P-207],1.3,> 5000
C[C@H](C#N)Nc1cc(-n2ncc3cc(C#N)cnc32)ncc1-n1cc(C2CCC(CCN3CCC(c4ccc(C5CCC(=O)NC5=O)cc4)CC3)CC2)nn1 (stereo partly shown) [P-209],0.9,–
C[C@H](C#N)Nc1cc(-n2ncc3cc(C#N)cnc32)ncc1-c1cc([C@H]2CC[C@H](CCN3CCN(c4ccc(C5CCC(=O)NC5=O)cc4)CC3)CC2)no1 (stereo partly shown) [P-211],–,3
CC(C#N)Nc1cc(-n2ncc3cc(C#N)cnc32)ncc1-n1cc(C23CCC(CCN4CCN(c5ccc(C6CCC(=O)NC6=O)cc5)CC4)(CC2)CC3)nn1 (stereo not shown) [P-212],1.5,3
C[C@H](C#N)Nc1cc(-n2ncc3cc(C#N)c(N)nc32)ncc1-n1cc(C2CCC(CCN3CCC(c4ccc(C5CCC(=O)NC5=O)cc4)CC3)CC2)nn1 (stereo partly shown) [P-214],<0.5,–
C[C@H](C#N)Nc1cc(-n2ncc3cc(C#N)c(N)nc32)ncc1-n1cc([C@H]2CC[C@H](CCN3CCC(c4ccc(C5CCC(=O)NC5=O)cc4)CC3)CC2)nn1 (stereo partly shown) [P-214],–,< 1
C[C@H](C#N)Nc1cc(-n2ncc3cc(C#N)c(N)nc32)ncc1-n1cc(C2CCC(CCN3C[C@H](C)N(c4ccc(C5CCC(=O)NC5=O)cc4)C[C@H]3C)CC2)nn1 (stereo partly shown) [P-215],0.7,< 1
C[C@H](C#N)Nc1cc(-n2ncc3cc(C#N)cnc32)ncc1-n1cc(C2CCC(CCN3[C@H](C)CN(c4ccc(C5CCC(=O)NC5=O)cc4)C[C@H]3C)CC2)nn1 (stereo partly shown) [P-221],1.4,5
C[C@H](C#N)Nc1cc(-n2ncc3cc(C#N)c(N)nc32)ncc1-n1cc(C2CCC(CCN3CCN(c4ccc([C@@]5(C)CCC(=O)NC5=O)cc4)CC3)CC2)nn1 (stereo partly shown) [P-222],2.1,–

# More lines, now with the values ahead:
LVL THP1 HTRF YMIN [%],DC50 [nM],Compound
2.2,–,C[C@H](C#N)Nc1cc(-n2ncc3cc(C#N)cnc32)ncc1-c1cn(C2CCC(CCN3CCN(c4ccc(C5CCC(=O)NC5=O)cc4)CC3)CC2)nn1 (stereo partly shown) [P-195]
–,6,C[C@H](C#N)Nc1cc(-n2ncc3cc(C#N)cnc32)ncc1-c1cn([C@H]2CC[C@H](CCN3CCN(c4ccc(C5CCC(=O)NC5=O)cc4)CC3)CC2)nn1 (stereo partly shown) [P-195]
3.5,–,C[C@H](C#N)Nc1cc(-n2ncc3cc(C#N)cnc32)ncc1-c1cc(C2CCC(CCN3CCN(c4ccc(C5CCC(=O)NC5=O)cc4)CC3)CC2)on1 (stereo partly shown) [P-196]
1.2,10,CC(C#N)Nc1cc(-n2ncc3cc(C#N)cnc32)ncc1-n1cc(C2CCC(C(F)CN3CCN(c4ccc(C5CCC(=O)NC5=O)cc4)CC3)CC2)nn1 (stereo not shown) [P-198]
3.0,–,C[C@H](C#N)Nc1cc(-n2ncc3cc(C#N)cnc32)ncc1-c1cnn(C2CCC(CCN3CCN(c4ccc(C5CCC(=O)NC5=O)cc4)CC3)CC2)c1 (stereo partly shown) [P-203]
–,11,C[C@H](C#N)Nc1cc(-n2ncc3cc(C#N)cnc32)ncc1-c1cnn([C@H]2CC[C@H](CCN3CCN(c4ccc(C5CCC(=O)NC5=O)cc4)CC3)CC2)c1 (stereo partly shown) [P-203]
1.1,–,C[C@@H](C#N)Nc1cc(-n2ncc3cc(C#N)cnc32)ncc1-n1cc(C2CCC(CCN3CCN(c4ccc(C5CCC(=O)NC5=O)cc4)CC3)CC2)nn1 (stereo partly shown) [P-205]
–,30,C[C@@H](C#N)Nc1cc(-n2ncc3cc(C#N)cnc32)ncc1-n1cc([C@H]2CC[C@H](CCN3CCN(c4ccc(C5CCC(=O)NC5=O)cc4)CC3)CC2)nn1 (stereo partly shown) [P-205]
1.1,2,C[C@H](C#N)Nc1cc(-n2ncc3cc(C#N)cnc32)ncc1-n1cc(C2CCC(CCN3C[C@H](C)N(c4ccc(C5CCC(=O)NC5=O)cc4)C[C@H]3C)CC2)nn1 (stereo partly shown) [P-206]
1.4,9,C[C@H](C#N)Nc1cc(-n2ncc3cc(C#N)cnc32)ncc1-n1cc(C2CCC(CCN3C[C@@H](C)N(c4ccc(C5CCC(=O)NC5=O)cc4)C[C@@H]3C)CC2)nn1 (stereo partly shown) [P-208]
–,1,C[C@H](C#N)Nc1cc(-n2ncc3cc(C#N)cnc32)ncc1-n1cc([C@H]2CC[C@H](CCN3CCC(c4ccc(C5CCC(=O)NC5=O)cc4)CC3)CC2)nn1 (stereo partly shown) [P-209]
>95.0,15,C[C@H](C#N)Nc1cc(-n2ncc3cc(C#N)cnc32)ncc1-n1cc(C2CCC(CCN3CCN(c4ccc([C@]5(C)CCC(=O)NC5=O)cc4)CC3)CC2)nn1 (stereo partly shown) [P-210]
1.1,–,C[C@H](C#N)Nc1cc(-n2ncc3cc(C#N)cnc32)ncc1-c1cc(C2CCC(CCN3CCN(c4ccc(C5CCC(=O)NC5=O)cc4)CC3)CC2)no1 (stereo partly shown) [P-211]
1.7,2,CC(C#N)Nc1cc(-n2ncc3cc(C#N)cnc32)ncc1-n1cc(C2CCC(C(C)CN3CCN(c4ccc(C5CCC(=O)NC5=O)cc4)CC3)CC2)nn1 (stereo not shown) [P-213]
1.,1,C[C@H](C#N)Nc1cc(-n2ncc3cc(C#N)c(N)nc32)ncc1-n1cc(C2CCC(CCN3CCN(c4ccc(C5CCC(=O)NC5=O)cc4)[C@H](C)C3)CC2)nn1 (stereo partly shown) [P-216]
1.6,–,CS(=O)(=O)N1CCC(Nc2cc(-n3ncc4cc(C#N)c(N)nc43)ncc2-n2cc(C3CCC(CCN4CCN(c5ccc(C6CCC(=O)NC6=O)cc5)CC4)CC3)nn2)CC1 (stereo not shown) [P-217]
–,9,CS(=O)(=O)N1CCC(Nc2cc(-n3ncc4cc(C#N)c(N)nc43)ncc2-n2cc([C@H]3CC[C@H](CCN4CCN(c5ccc(C6CCC(=O)NC6=O)cc5)CC4)CC3)nn2)CC1 (stereo partly shown) [P-217]
4.3,–,C[C@H](C#N)Nc1cc(-n2ncc3cncnc32)ncc1-n1cc(C2CCC(CCN3CCN(c4ccc(C5CCC(=O)NC5=O)cc4)CC3)CC2)nn1 (stereo partly shown) [P-218]
–,6,C[C@H](C#N)Nc1cc(-n2ncc3cncnc32)ncc1-n1cc([C@H]2CC[C@H](CCN3CCN(c4ccc(C5CCC(=O)NC5=O)cc4)CC3)CC2)nn1 (stereo partly shown) [P-218]
1.8,6,C[C@H](C#N)Nc1cc(-n2ncc3cc(C#N)c(N)nc32)ncc1-n1cc(C2CCC(CCN3CCN(c4ccc(C5CCC(=O)NC5=O)cc4)[C@@H](C)C3)CC2)nn1 (stereo partly shown) [P-219]
4.3,6,C[C@H](C#N)Nc1cc(-n2ncc3cc(C#N)c(N)nc32)ncc1-n1cc(C2CCC(CCN3[C@H](C)CN(c4ccc(C5CCC(=O)NC5=O)cc4)C[C@H]3C)CC2)nn1 (stereo partly shown) [P-220]

# Source: patent US20240109881A1, “Heteroaryl Compounds as Ligand Directed Degraders of IRAK4” (Bristol-Myers Squibb Company, priority 2022, published 2024)
